From patent US9908897B2, “Spirocyclic derivatives” (CHRONOS THERAPEUTICS LIMITED, priority 2014, dated 2018)

Key:
[1] = biological target: human dopamine transporter (DAT) (Homo sapiens (Human), UniProt Q01959); experiment: Scintillation Proximity Assay (SPA) competition binding, human DAT; conditions: recombinant hDAT-CHO membranes, [3H]WIN-35,428
In short: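 SPA binding on membranes from CHO cells stably expressing human DAT, with 5 nM [3H]WIN-35,428, WGA-PVT beads and 0.02% BSA in HEPES/NaCl/KCl buffer pH 7.4.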

[2] = biological target: human norepinephrine transporter (NET) (Homo sapiens (Human), UniProt P23975); experiment: Scintillation Proximity Assay (SPA) competition binding, human NET; conditions: recombinant hNET-CHO membranes, [3H]nisoxetine
[3] = biological target: human serotonin transporter (SERT) (Homo sapiens (Human), UniProt P31645); experiment: Scintillation Proximity Assay (SPA) competition binding, human SERT; conditions: recombinant hSERT-CHO membranes, [3H]citalopram
[4] = biological target: human ERG potassium channel (hERG) (Homo sapiens (Human), UniProt Q12809); experiment: hERG tail current recording, Rapid ICE automated patch-clamp; format: cell-based; conditions: HEK293 cells stably transfected with hERG
Experimental: Measure of the Effect on hERG Channel by Tail Current Recording Using In Vitro Rapid ICE™
The potency of the compounds of the invention in inhibiting human ERG potassium channel (hERG) tail current is assessed in a recombinant HEK293 cell line stably transfected with hERG cDNA using Rapid ICE™ (Rapid Ion Channel Electrophysiology) assay. Rapid ICE™ is an automated patch-clamp assay utilizing the PatchXpress 7000A system (Molecular Devices Corporation) or the QPatch HTX system (Sophion Bioscience A/S).
Briefly cells are cultivated for 24 to 72 hours before recordings in minimum essential medium supplemented with 10% FBS, 1% non-essential amino acids, 1% sodium pyruvate, 2 mM L-glutamine. The day of the experiment cells are detached with TrypLE and prepared to be loaded on the instrument. For PatchXpress cells are finally resuspended in 150 μl of Extracellular Buffer whereas for QPatch cells are resuspended in 7 ml Serum-Free Media containing 25 mM Hepes and Soybean trypsin inhibitor and immediately placed in the cell storage tank of the machine. The composition of the Extracellular Buffer is (mM): NaCl 137; KCl 4; CaCl2 1.8; MgCl2 1.0; D-glucose 10; N 2 hydroxyethylpiperazine-N′-2-ethanesulfonic acid (HEPES) 10; pH 7.4 with 1 M NaOH. The composition of the pipette solution is (mM): KCl 130; MgCl2 1.0; Ethylene glycol-bis(β-aminoethyl ether)-N,N,N′,N′-tetraacetic acid (EGTA) 5; MgATP 5; HEPES 10; pH 7.2 with 1 M KOH. The voltage protocol includes the following steps: step from −80 mV to −50 mV for 200 ms, +20 mV for 4.8 s, step to −50 mV for 5 s then step to the holding potential of −80 mV. Compounds of the invention are dissolved in DMSO and diluted in Extracellular Buffer to achieve final test concentrations (0.1, 1 and 10 μM) in 0.1% DMSO. The voltage protocol is run and recorded continuously during the experiment. The vehicle, corresponding to 0.1% DMSO in Extracellular Buffer, is then applied for 3 min followed by the test substance in triplicate. The standard combined exposure time is 5 min. The average of tail current amplitude values recorded from 4 sequential voltage pulses is used to calculate for each cell the effect of the test substance by calculating the residual current (% control) compared with vehicle pre-treatment. Data are reported as % inhibition for each concentration tested and IC50 values are estimated using DataXpress or QPatch software. At least two cells are tested, more if results diverge.

Sequence of human ERG potassium channel (hERG) (Q12809 whole entry): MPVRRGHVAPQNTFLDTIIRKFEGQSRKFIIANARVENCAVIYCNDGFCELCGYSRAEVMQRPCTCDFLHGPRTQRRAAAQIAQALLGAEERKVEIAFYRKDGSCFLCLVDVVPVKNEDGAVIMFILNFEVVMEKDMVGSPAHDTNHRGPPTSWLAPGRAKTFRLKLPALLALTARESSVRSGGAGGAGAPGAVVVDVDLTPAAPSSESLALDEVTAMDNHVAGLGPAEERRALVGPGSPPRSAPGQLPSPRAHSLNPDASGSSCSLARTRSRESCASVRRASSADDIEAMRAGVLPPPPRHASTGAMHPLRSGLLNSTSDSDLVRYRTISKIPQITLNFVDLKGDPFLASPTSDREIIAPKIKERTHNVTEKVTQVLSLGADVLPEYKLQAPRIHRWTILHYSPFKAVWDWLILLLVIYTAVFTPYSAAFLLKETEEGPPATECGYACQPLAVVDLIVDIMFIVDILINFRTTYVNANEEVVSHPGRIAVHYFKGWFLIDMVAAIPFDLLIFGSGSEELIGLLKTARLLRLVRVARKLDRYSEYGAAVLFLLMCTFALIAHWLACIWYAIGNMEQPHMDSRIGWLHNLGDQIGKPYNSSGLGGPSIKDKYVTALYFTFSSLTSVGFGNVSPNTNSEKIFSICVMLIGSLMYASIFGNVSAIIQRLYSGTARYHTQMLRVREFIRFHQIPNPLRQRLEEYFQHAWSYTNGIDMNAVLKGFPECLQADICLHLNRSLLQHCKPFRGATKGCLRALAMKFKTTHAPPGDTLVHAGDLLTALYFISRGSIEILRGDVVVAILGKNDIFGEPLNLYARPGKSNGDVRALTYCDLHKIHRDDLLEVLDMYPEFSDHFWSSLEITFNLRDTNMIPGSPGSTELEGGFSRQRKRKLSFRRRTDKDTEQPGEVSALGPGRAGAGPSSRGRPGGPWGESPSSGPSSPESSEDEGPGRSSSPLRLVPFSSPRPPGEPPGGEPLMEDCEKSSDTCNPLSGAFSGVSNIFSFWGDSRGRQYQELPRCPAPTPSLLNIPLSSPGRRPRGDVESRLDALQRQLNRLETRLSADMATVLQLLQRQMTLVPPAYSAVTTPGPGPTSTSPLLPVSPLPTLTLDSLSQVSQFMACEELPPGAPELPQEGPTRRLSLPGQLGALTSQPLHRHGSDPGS
Sequence of human serotonin transporter (SERT) (P31645 whole entry): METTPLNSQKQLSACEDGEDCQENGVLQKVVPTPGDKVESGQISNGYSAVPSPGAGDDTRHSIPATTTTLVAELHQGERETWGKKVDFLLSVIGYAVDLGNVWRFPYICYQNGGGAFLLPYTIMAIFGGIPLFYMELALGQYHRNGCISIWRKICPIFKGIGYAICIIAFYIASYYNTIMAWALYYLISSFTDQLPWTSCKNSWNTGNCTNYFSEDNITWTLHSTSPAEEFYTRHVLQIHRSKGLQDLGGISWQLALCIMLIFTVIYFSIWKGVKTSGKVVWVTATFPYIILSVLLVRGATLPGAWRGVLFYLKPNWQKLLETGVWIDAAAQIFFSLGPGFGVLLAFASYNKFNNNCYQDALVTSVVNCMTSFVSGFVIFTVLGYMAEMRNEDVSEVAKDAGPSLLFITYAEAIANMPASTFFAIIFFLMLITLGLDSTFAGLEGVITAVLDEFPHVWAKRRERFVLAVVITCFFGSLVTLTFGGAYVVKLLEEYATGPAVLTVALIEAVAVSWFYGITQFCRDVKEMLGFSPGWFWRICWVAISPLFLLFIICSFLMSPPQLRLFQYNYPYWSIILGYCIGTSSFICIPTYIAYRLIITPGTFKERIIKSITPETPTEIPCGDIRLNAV
Sequence of human dopamine transporter (DAT) (Q01959 whole entry): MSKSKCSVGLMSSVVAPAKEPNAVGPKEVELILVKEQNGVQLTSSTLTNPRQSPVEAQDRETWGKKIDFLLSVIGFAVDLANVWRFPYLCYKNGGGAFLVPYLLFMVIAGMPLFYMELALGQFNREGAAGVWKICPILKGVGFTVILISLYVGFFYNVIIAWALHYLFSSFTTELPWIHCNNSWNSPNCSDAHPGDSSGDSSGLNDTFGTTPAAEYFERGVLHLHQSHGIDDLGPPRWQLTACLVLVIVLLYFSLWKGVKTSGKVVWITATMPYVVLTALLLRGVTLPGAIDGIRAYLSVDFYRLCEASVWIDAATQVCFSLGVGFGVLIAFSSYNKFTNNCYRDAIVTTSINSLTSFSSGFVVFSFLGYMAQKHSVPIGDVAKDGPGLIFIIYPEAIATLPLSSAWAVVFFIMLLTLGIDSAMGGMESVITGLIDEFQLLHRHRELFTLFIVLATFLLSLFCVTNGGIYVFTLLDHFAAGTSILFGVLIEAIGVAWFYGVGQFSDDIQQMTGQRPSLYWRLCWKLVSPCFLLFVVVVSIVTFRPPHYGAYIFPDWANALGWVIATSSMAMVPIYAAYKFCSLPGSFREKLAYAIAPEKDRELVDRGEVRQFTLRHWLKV
Sequence of human norepinephrine transporter (NET) (P23975 whole entry): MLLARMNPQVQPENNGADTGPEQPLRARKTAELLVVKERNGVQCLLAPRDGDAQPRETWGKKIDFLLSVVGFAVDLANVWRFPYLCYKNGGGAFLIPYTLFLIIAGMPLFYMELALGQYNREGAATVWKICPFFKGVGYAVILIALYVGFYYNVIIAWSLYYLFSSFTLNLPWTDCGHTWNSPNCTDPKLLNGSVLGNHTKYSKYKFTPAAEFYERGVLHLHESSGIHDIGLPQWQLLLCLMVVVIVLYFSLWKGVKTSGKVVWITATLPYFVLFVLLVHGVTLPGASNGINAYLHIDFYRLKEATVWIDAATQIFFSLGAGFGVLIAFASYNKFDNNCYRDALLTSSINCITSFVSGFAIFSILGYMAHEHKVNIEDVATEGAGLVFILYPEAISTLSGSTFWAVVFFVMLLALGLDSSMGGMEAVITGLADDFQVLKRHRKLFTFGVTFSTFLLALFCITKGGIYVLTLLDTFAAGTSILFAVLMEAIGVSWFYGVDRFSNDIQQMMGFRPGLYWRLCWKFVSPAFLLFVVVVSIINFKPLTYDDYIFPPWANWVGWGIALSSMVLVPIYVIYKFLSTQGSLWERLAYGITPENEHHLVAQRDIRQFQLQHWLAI

Row | Structure (SMILES) | pIC50 DAT [1] | pIC50 NET [2] | pIC50 SERT [3] | pIC50 hERG [4] | IC50 [3] [µM]
1 | Fc1cccc(Oc2ccc(F)c(N3CCC4(CC3)CNCCO4)c2)c1 [Example 10, 9-[2-fluoro-5-(3-fluorophenoxy)phenyl]-1-oxa-4,9-diazaspiro[5.5]undecane] | 7.56 | 6.07 | 5.32 | 5.6 | 
2 | Fc1cccc(Oc2cc(F)c(F)cc2N2CCC3(CCNCC3)C2)c1 [Example 90, 2-[4,5-difluoro-2-(3-fluorophenoxy)phenyl]-2,8-diazaspiro[4.5]decane] | 8.36 | 6.85 | 6.31 | 6.1 | 
3 | O=S1(=O)CCNCC12CCN(c1nc(Oc3cccc(F)c3)cc(C(F)(F)F)n1)CC2 [Example 72, 9-[4-(3-fluorophenoxy)-6-(trifluoromethyl)pyrimidin-2-yl]-1λ^6-thia-4,9-diazaspiro[5.5]undecane-1,1-dione] | 7.08 | 4.92 |  | 5.5 | > 100
4 | Cc1cccc(Oc2cc(C)nc(N3CCC4(CC3)CNCCO4)n2)c1.Cl [Example 45, 9-[4-methyl-6-(3-methylphenoxy)pyrimidin-2-yl]-1-oxa-4,9-diazaspiro[5.5]undecane hydrochloride] | 7.59 | 5.54 | 4.83 | 5.7 | 
5 | Fc1cccc(Oc2cc(F)c(F)cc2N2CCC3(CCNCC3)CC2)c1 [Example 82, 3-[4,5-difluoro-2-(3-fluorophenoxy)phenyl]-3,9-diazaspiro[5.5]undecane] | 8.14 | 6.10 | 8.00 | 6.0 | 
6 | Cl.Fc1cccc(Oc2cc(C(F)(F)F)nc(N3CCC4(CCNCC45OCCO5)C3)n2)c1 (stereo not drawn) [Example 95, 8-[4-(3-fluorophenoxy)-6-(trifluoromethyl)pyrimidin-2-yl]-1,4-dioxa-8,13-diazadispiro[4.0.4^6.4^5]tetradecane hydrochloride] | 8.16 | 6.09 | 6.29 | 5.6 | 
7 | Fc1c(Oc2ccccc2)cccc1N1CCC2(CC1)CNCCO2 [Example 17, 9-(2-fluoro-3-phenoxyphenyl)-1-oxa-4,9-diazaspiro[5.5]undecane] | 8.42 | 6.46 | 5.65 | 5.4 | 
8 | Fc1cccc(Oc2cc(N3CCC4(CC3)CNCCO4)ccc2F)c1 [Example 11, 9-[4-fluoro-3-(3-fluorophenoxy)phenyl]-1-oxa-4,9-diazaspiro[5.5]undecane] | 6.78 | 5.72 | 6.22 | 6.5 | 
9 | Fc1cccc(Oc2ccccc2N2CCC3(CC2)CNCCO3)c1 [Example 4, 9-[2-(3-fluorophenoxy)phenyl]-1-oxa-4,9-diazaspiro[5.5]undecane] | 7.31 | 6.13 | 6.24 | 5.8 | 
10 | Fc1cccc(Oc2cc(F)c(F)cc2N2CCC3(CCNCC34OCCO4)C2)c1 (stereo not drawn) [Example 93, 8-[4,5-difluoro-2-(3-fluorophenoxy)phenyl]-1,4-dioxa-8,13-diazadispiro[4.0.4^6.4^5]tetradecane] | 8.44 | 6.64 | 6.90 | 6.0 | 
11 | Cl.Fc1cccc(Oc2cncc(N3CCC4(CC3)CNCCO4)n2)c1 [Example 41, 9-[6-(3-fluorophenoxy)pyrazin-2-yl]-1-oxa-4,9-diazaspiro[5.5]undecane hydrochloride] | 7.44 | 5.33 | 6.02 | 5.9 | 
12 | N#Cc1ccc(Oc2ccccc2)c(N2CCC3(CC2)CNCCO3)c1 [Example 5, 3-{1-oxa-4,9-diazaspiro[5.5]undecan-9-yl}-4-phenoxybenzonitrile] | 6.82 | 6.19 | 7.63 | 6.2 | 
